Data on five compounds can be found in patent US10561657B2, “Pyrrolopyrimidine compound” (CENTAURUS BIOPHARMA CO., LTD., priority 2014, dated 2020).

One series relates to Ba/F3-JAK2V617F tumor. As to the kind of experiment: Efficacy in mouse subcutaneous xenograft tumor model. The class given is in vivo, Balb/c nude mice. Conditions: for TGI (%) 3 d: day 3; for TGI (%) 7 d: day 7; for TGI (%) 10 d: day 10; for TGI (%) 14 d: day 14. How it is done: 3. Assay for Efficacy in Mouse Subcutaneous Xenograft Tumor Model SPF grade Balb/c nude mice are female and 5-6 weeks old. 0.1 mL of the suspension of Ba/F3-JAK2V617F cells in serum-free culture medium (containing 1×10^7 cells, 50% MatriGel) was subcutaneously injected into right flank of each mouse. When the average tumor volume reached about 500 mm^3, the tumor-bearing mice were sacrificed. The tumor tissues were aseptically picked up, and cut into small pieces, which were subcutaneously implanted into both flanks of Balb/c nude mice. When the average tumor volume reached about 100 mm^3, each mouse was marked according to serial numbers, and their tumor sizes and body weights were measured, respectively. These mice were randomly allocated from small to large in terms of tumor volume, and each group of animals was appropriately adjusted to make the average body weights of the groups in a same level. […] The administration was started on the day of allocation, twice per day for 14 days. During the administration, the tumor volumes and body weights were measured twice per week. The mice were sacrificed at the end of the experiment, and the spleen was isolated and weighted. During the experiment, the maximum long diameter (L) and the maximum transverse diameter in the vertical direction (W) of the tumor were measured to calculate the tumor volume (V) according to V (mm^3)=L×W^2/2. […] T0 represents the average tumor volume of the treatment group when being allocated; Vt represents the average tumor volume measured every time in the control group; V0 represents the average tumor volume of the control group when being allocated.

Series [1] can be described thus: Pharmacokinetic assay in adult female SD rats (30 mg/kg oral). Format: in vivo. Conditions: female, Sprague-Dawley, rat, plasma, po, 30 mg/kg.
In series [2] the target is JAK2 kinase (wild type, JAK2^WT) (Homo sapiens (Human), UniProt O60674). The series is described as follows: HTRF assay for enzymatic activity (IC50), JAK2 wild type. Format: biochemical. Particulars: ATP at Km, 120 min, 23 °C. How it is done: (§1) 1. Assay for Enzymatic Activity (IC50) of Compounds
(§2) A testing platform for kinase activity of JAK2 (wild type and V617F mutant type) was established based on Homogeneous Time-Resolved Fluorescence (HTRF) assay, and the activities of the compounds were tested using the platform. The compounds were subjected to three-fold gradient dilutions with 100% DMSO with a starting concentration of 1 mM (11 dilutions in total). 4 μL of each dilution was added to 96 μL of reaction buffer (50 mM HEPES, pH 7.4, 10 mM MgCl2, 1 mM EGTA, 0.01% Tween-20, 0.005% BAS, 2 mM DTT) and mixed homogeneously. […] The mixture was mixed homogeneously by centrifugation. […] The plate was incubated in the incubator for 1 hr, and then the fluorescence values were read on Envision (available from PerkinElmer). […] The enzymatic activity was representd by a ratio of the two readout at the two emission wavelengths. The enzymatic activity for each compound was tested at 11 concentrations, and IC50 values of the compounds were obtained by calculating the data using GraFit6.0 software (Erithacus Software). 2. Assay for cell proliferation activity (IC50) of compounds

The target in series [3] is JAK2 kinase (V617F mutant type, JAK2^V617F) (Homo sapiens (Human), UniProt O60674, V617F). The series is described as follows: HTRF assay for enzymatic activity (IC50), JAK2 V617F mutant type. Format: biochemical. Particulars: ATP at Km, 120 min, 23 °C. How it is done:
as §1, §2
(In TR-FRET formats the signal depends on donor and acceptor labels being close together.)

A further series relates to HEL (JAK2^V617F) cells. The series is described as follows: Cell proliferation assay (CellTiter-Blue, 72 hrs). The class given is cell-based. Particulars: Homo sapiens; 72 hrs of treatment.
The nature of another series: in vivo. Particulars: male, Sprague-Dawley, rat, plasma, po, 5 mg/kg.
The conditions of series [4]: 0.5% MC, FDA pharmacology review, cited from earlier work.
For series [5] the following is noted: rats, 30 mg/kg PO; FDA pharmacology review; cited from earlier work.
For series [6] the following is noted: dogs, male, FDA pharmacology review, cited from earlier work.

Each structure is given as a SMILES string. Counter-ions that a name gives are not always drawn. Like-named read-outs stand apart in the source and are kept apart here.

Chain of JAK2 kinase (V617F mutant type, JAK2^V617F) (O60674 whole entry V617F): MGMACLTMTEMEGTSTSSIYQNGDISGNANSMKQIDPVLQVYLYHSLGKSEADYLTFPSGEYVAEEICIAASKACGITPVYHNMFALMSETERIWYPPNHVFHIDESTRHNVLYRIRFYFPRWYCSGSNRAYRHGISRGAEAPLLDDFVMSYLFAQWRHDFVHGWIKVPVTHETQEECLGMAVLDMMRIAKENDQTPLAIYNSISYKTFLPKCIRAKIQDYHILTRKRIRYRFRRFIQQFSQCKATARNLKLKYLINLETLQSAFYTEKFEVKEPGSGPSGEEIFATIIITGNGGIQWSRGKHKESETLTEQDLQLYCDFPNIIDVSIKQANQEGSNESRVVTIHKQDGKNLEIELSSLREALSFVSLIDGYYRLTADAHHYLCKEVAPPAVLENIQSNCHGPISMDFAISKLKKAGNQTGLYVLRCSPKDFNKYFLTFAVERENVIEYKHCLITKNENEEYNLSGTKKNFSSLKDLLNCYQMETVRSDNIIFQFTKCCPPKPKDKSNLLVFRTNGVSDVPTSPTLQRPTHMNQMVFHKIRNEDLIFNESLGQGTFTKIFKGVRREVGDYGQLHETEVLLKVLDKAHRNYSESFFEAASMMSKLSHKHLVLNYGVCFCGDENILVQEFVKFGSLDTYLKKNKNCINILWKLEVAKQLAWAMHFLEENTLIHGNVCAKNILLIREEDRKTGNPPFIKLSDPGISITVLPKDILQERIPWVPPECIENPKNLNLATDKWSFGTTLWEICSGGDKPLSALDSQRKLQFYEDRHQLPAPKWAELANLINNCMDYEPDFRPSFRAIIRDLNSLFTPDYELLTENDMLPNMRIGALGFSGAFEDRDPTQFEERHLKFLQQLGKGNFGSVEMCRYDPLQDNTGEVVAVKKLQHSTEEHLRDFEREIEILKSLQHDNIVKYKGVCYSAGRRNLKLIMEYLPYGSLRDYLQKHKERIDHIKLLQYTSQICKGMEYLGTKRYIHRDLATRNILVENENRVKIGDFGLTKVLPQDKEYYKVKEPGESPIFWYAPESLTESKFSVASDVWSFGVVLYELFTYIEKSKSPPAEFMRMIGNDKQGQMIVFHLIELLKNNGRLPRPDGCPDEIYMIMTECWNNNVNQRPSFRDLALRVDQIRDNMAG
Chain of JAK2 kinase (wild type, JAK2^WT) (O60674 whole entry): as the sequence (O60674 whole entry V617F) above, with F617V counted along it
Experimental for HEL (JAK2^V617F) cells: In the tests of compounds, HEL cells were plated in a 96-well plate (Corning) at a density of 3000 cells/195 μL per well. The compounds were subjected to three-fold gradient dilutions with a starting concentration of 10 mM (11 dilutions in total). […] 5 μL of the resulting liquid was then added to 195 μL of the cell culture medium (the final concentration in DMSO is 0.1%, v/v). After 72 hrs of treatment, 35 μL of CellTiter-Blue® (available from Promega) was added. The fluorescent signals were detected on Flex Station3 (Molecular Devices) in accordance with the protocols described in the instructions. The IC50 values of the compounds in inhibiting cell proliferation were calculated using GraphPad Prism 5.0.
Experimental for in vivo: The rats were allocated with three rats per group, and separately orally administered the suspension of a sample to be tested (5 mg/kg or 15 mg/kg) by single intragastric administration. […] After the animals were narcotized with isoflurane using an anaesthesia machine for small animals, 0.3 mL of whole blood was drawn from fundus venous plexus, and placed in a heparin anticoagulant tube. At 4° C., the sample was centrifuged at 4000 rpm for 5 min, and plasma was transferred to a centrifuge tube and preserved at −80° C. until the analysis was started. The sample in plasma was extracted by the protein precipitation method, and the extract liquid was analyzed by LC/MS/MS.

With `N#CC[C@H](C1CCCC1)n1cc(-c2ncnc3[nH]ccc23)c(N)n1` [(3R)-3-[3-amino-4-(7H-pyrrolo[2,3-d]pyrimidin-4-yl)-1H-pyrazol-1-yl]-3-cyclopentylpropanenitrile hydrochloride], the “TGI (%) 3 d” value in the series on Ba/F3-JAK2V617F tumor (25 mg/kg PO BID) was 45.45%; in the series with Ba/F3-JAK2V617F tumor (50 mg/kg PO BID) it was 41.77%; in the series with Ba/F3-JAK2V617F tumor (100 mg/kg PO BID), 91.62%. Further, the “TGI (%) 7 d” value was found to be 16.85% in the series on Ba/F3-JAK2V617F tumor (25 mg/kg PO BID), 43.60% in the series with Ba/F3-JAK2V617F tumor (50 mg/kg PO BID) and 79.76% with Ba/F3-JAK2V617F tumor (100 mg/kg PO BID). The “TGI (%) 10 d” value with Ba/F3-JAK2V617F tumor (25 mg/kg PO BID) was found to be 54.49%; in the series on Ba/F3-JAK2V617F tumor (50 mg/kg PO BID), 65.19%; in the series with Ba/F3-JAK2V617F tumor (100 mg/kg PO BID), 89.37%. In addition, the “TGI (%) 14 d” value came out at 40.74% in the series on Ba/F3-JAK2V617F tumor (25 mg/kg PO BID); 68.40% in the series on Ba/F3-JAK2V617F tumor (50 mg/kg PO BID, hydrochloride); 68.4% in the series with Ba/F3-JAK2V617F tumor (50 mg/kg PO BID, listed as hydrochloride of the compound of Example 5, hydrochloride); 85.76% in the series on Ba/F3-JAK2V617F tumor (100 mg/kg PO BID, hydrochloride); 85.8% in the series with Ba/F3-JAK2V617F tumor (100 mg/kg PO BID, listed as hydrochloride of the compound of Example 5, hydrochloride). Further, the “inhibitory effect on Ba/F3-JAK2V617F tumor growth” value with Ba/F3-JAK2V617F tumor (25, 50, 100 mg/kg PO BID for 14 days) is listed as “dose-dependent inhibitory effect”. In [1], this compound had a half-life of 117 min. For the same compound, in series [1] (read-out: AUCINFobs), the AUC(0-inf) was 5760 ng·h/mL. In [1] (read-out: Cmax), the Cmax was determined as 2350 ng/mL. Moreover, the Tmax in series [1] (read-out: Tmax) worked out at 19.8 min.

As to `N#CCC(C1CCCC1)n1cc(-c2ncnc3[nH]ccc23)c(N)n1` (stereo not drawn) [Example 1, 3-[3-amino-4-(7H-pyrrolo[2,3-d]pyrimidin-4-yl)-1H-pyrazol-1-yl]-3-cyclopentylpropanenitrile], the IC50 in [2] and in [3] was less than 20 nM throughout.

With `CCNc1nn(C(CC#N)C2CCCC2)cc1-c1ncnc2[nH]ccc12` (stereo not drawn) [Example 7, 3-[3-ethylamino-4-(7H-pyrrolo[2,3-d]pyrimidin-4-yl)-1H-pyrazol-1-yl]-3-cyclopentylpropanenitrile], the IC50 in series [2] is less than 20 nM. Moreover, the IC50 in the series on HEL (JAK2^V617F) cells was less than 200 nM. In [3], this compound showed an IC50 of less than 20 nM. Moreover, in “in vivo”, the AUC(0-inf) was found to be 20 ng·h/mL, the peak level (Cmax) was 13.5 ng/mL, the Tmax was determined as 19.8 min and the half-life was 30 min.

Take `N#CC[C@H](C1CCCC1)n1cc(-c2ncnc3[nH]ccc23)cn1` [Ruxolitinib Phosphate]: in series [4] (female rats, oral 15 mg/kg), the “AUCINF—obs” value is 336 ng·h/mL, the “Cmax” value is 267 ng/mL, the “T1/2” value was 119 min and the time of peak concentration (Tmax) is 30 min. Moreover, in series [4] (male rats, oral 5 mg/kg), the “AUCINF—obs” value is 3.33 ng·h/mL, the “Cmax” value is listed as 4.69 ng/mL and the “Tmax” value is 30 min.

Consider `N#CC[C@H](C1CCCC1)n1cc(-c2ncnc3[nH]ccc23)cn1` [Ruxolitinib], for which, in series [5], the AUCINFobs was 1345 ng·h/mL, the Cmax is given as 1143 ng/mL, the Tmax is 30 min and the t1/2 was 73.2 min. In series [6] (IV 5 mg/kg), the “AUCINF—obs” value is 13776 ng·h/mL, the Cl_obs is 8 mL/min/kg, the Vss_obs was 1.1 L/kg and the t1/2 is 150 min. For the same compound, in series [6] (PO 10 mg/kg), the “AUCINF—obs” value was 15716 ng·h/mL, the Cmax is on record as 3519 ng/mL, the F was 57% and the Tmax was 120 min. Further, the t1/2 in [6] (PO 10 mg/kg) was 132 min.

In general, half-life refers to the time needed for the level to fall by half in the phase considered. Read a high half-life as slow loss. One may read the Cmax as the maximum level reached in the sampled fluid or tissue. As a reminder, the Tmax is the time at which the peak concentration occurs. As usually defined, the IC50 is the concentration needed to halve the response being measured. Lower therefore signals higher potency.
